The subject of this test is B6C3F1 mice, B16 melanoma ip, median survival T/C. Nature of the test: NCI In Vivo Anticancer Drug Screen. Data for tumor model B16 Melanoma (intraperitoneal) in B6C3F1 mice. The conditions noted are these: endpoint: median survival time, schedule: Q01DX009 (ip), higher = longer survival. In a few lines:
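Values are T/C ratios: the measurement in treated animals divided by that in vehicle-treated controls, using survival or tumor size in mice carrying transplantable tumors.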

Where [1] appears, read: dose: 1.5 mg/kg/injection, vehicle: saline with Tween-80.
Setting [2] is: dose: 3.0 mg/kg/injection, vehicle: saline with Tween-80.
The mark [3] stands for this setting: dose: 6.0 mg/kg/injection, vehicle: saline with Tween-80.
The mark [4] stands for this setting: dose: 12.0 mg/kg/injection, vehicle: saline with Tween-80.
The mark [5] stands for this setting: dose: 25.0 mg/kg/injection, vehicle: saline.
Setting [6] is: dose: 50.0 mg/kg/injection, vehicle: saline.
Setting [7] is: dose: 100.0 mg/kg/injection, vehicle: saline.
Where [8] appears, read: dose: 200.0 mg/kg/injection, vehicle: saline.
Setting [9] is: dose: 400.0 mg/kg/injection, vehicle: saline.
[10] abbreviates: dose: 100.0 mg/kg/injection, vehicle: saline with Tween-80.
Setting [11] is: dose: 200.0 mg/kg/injection, vehicle: saline with Tween-80.
[12] abbreviates: dose: 400.0 mg/kg/injection, vehicle: saline with Tween-80.
The mark [13] stands for this setting: dose: 25.0 mg/kg/injection, vehicle: Klucel (hydroxypropylcellulose) (HPC).
The mark [14] stands for this setting: dose: 50.0 mg/kg/injection, vehicle: Klucel (hydroxypropylcellulose) (HPC).
The mark [15] stands for this setting: dose: 100.0 mg/kg/injection, vehicle: Klucel (hydroxypropylcellulose) (HPC).
[16] abbreviates: dose: 200.0 mg/kg/injection, vehicle: Klucel (hydroxypropylcellulose) (HPC).
Setting [17] is: dose: 400.0 mg/kg/injection, vehicle: Klucel (hydroxypropylcellulose) (HPC).
Setting [18] is: dose: 25.0 mg/kg/injection, vehicle: saline with Tween-80.
The mark [19] stands for this setting: dose: 50.0 mg/kg/injection, vehicle: saline with Tween-80.
The mark [20] stands for this setting: dose: 12.5 mg/kg/injection, vehicle: saline with Tween-80.

These results are taken from PubChem BioAssay AID200 (DTP/NCI, 2004).

“And” between values parts separate entries of the source, which are not always exact repeats. Identical values can stand only once. Inconclusive results and toxic doses are left out.

For `C(=N/NC1=NCCN1)/c1c2ccccc2c(/C=N\NC2=NCCN2)c2ccccc12`, the T/C (dose: 3.12 mg/kg/injection, vehicle: saline) was 183 % of control; the T/C (dose: 6.25 mg/kg/injection, vehicle: saline) was 189 % of control; the T/C (dose: 12.5 mg/kg/injection, vehicle: saline) was 179 % of control.

Regarding `CC(C)(C)OC(=O)NC(Cc1c[nH]c2ccccc12)C(=O)O` (configuration not stated), the T/C is 94 % of control (dose: 100.0 mg/kg/injection, vehicle: distilled water + alcohol) and 94 % of control (dose: 200.0 mg/kg/injection, vehicle: distilled water + alcohol).

Regarding `CC(C)N1C(=O)N(Cl)C2C1N(Cl)C(=O)N2Cl` (configuration not stated), the T/C under setting [1] was 108 % of control; the T/C under setting [2] was 104 % of control; the T/C under setting [3] is 98 % of control; the T/C under setting [4] is 94 % of control; the T/C (dose: 24.0 mg/kg/injection, vehicle: saline with Tween-80) was 108 % of control.

Take `COc1cccc2c1C(=O)c1c(O)c3c(c(O)c1C2=O)C[C@@](O)(C(C)=O)C[C@@H]3OC1CC(N(Cc2ccccc2)Cc2ccccc2)C(O)C(C)O1` (some centres not stated): the T/C under setting [1] was 100 % of control; the T/C (dose: 1.5 mg/kg/injection, vehicle: water) is 112 % of control; the T/C under setting [2] was 111 % of control; the T/C (dose: 3.0 mg/kg/injection, vehicle: water) is 116 % of control; the T/C under setting [4] was 156 % of control; the T/C (dose: 12.0 mg/kg/injection, vehicle: water) is 151 % of control.

With `C1CCC(NC2CCCCC2)CC1`, the T/C under setting [5] was 86 % of control; the T/C under setting [6] was 101 % of control; the T/C under setting [7] is 106 % of control; the T/C under setting [8] was 86 % of control; the T/C under setting [9] was 104 % of control.

Regarding `C/C=C1\C(=O)O[C@@]23C=C[C@H]4C(C(=O)OC)=CO[C@@H](O[C@H]12)[C@H]43`, the T/C (dose: 3.75 mg/kg/injection, vehicle: Klucel (hydroxypropylcellulose) (HPC)) was 101 % of control; the T/C (dose: 7.5 mg/kg/injection, vehicle: Klucel (hydroxypropylcellulose) (HPC)) is 95 % of control; the T/C (dose: 15.0 mg/kg/injection, vehicle: Klucel (hydroxypropylcellulose) (HPC)) was 95 % of control.

As for `CCN(CC)c1ccc(N=Nc2ccc(C)cc2)cc1`, the T/C is 96 % of control under setting [10], 93 % of control under setting [11] and 96 % of control under setting [12].

`CC(C)[NH-].CC(C)[NH-].[Cl][Pt+2][Cl]`: the T/C reads like this: (dose: 1.56 mg/kg/injection, vehicle: other) 122 % of control; (dose: 3.12 mg/kg/injection, vehicle: other) 120 % of control.

With `O=c1[nH]c(=O)n(C2CC(O)C(CO)O2)cc1Br` (configuration not stated), the T/C runs as follows: under setting [13], 92 % of control; under setting [14], 110 % of control; under setting [15], 110 % of control; under setting [16], 116 % of control; under setting [17], 114 % of control; (dose: 800.0 mg/kg/injection, vehicle: Klucel (hydroxypropylcellulose) (HPC)) 109 % of control.

As for `Cc1c(CNc2ccc(C(=O)NC(CC(=O)O)C(=O)O)cc2)ccc2nc(N)nc(N)c12` (configuration not stated), under “dose: 0.18 mg/kg/injection, vehicle: saline with Tween-80”, the T/C is 90 % of control.

For `CCN(CC)CCCNc1nccc2c(C)c3[nH]c4ccncc4c3cc12`, the T/C is 176 % of control (dose: 0.38 mg/kg/injection, vehicle: other); 170 % of control (dose: 0.75 mg/kg/injection, vehicle: other); 180 % of control (dose: 1.5 mg/kg/injection, vehicle: other); 202 % of control (dose: 3.0 mg/kg/injection, vehicle: other); 257 % of control (dose: 6.0 mg/kg/injection, vehicle: other).

`CCOC(OCC)C(=O)OCC(=O)[C@]1(O)Cc2c(O)c3c(c(O)c2[C@@H](OC2CC(N)C(O)C(C)O2)C1)C(=O)c1c(OC)cccc1C3=O` (some centres not stated): the T/C reads like this: (dose: 0.12 mg/kg/injection, vehicle: water) 155 % of control; (dose: 0.13 mg/kg/injection, vehicle: water) 165 % of control; (dose: 0.25 mg/kg/injection, vehicle: water) 177 % of control and 182 % of control; (dose: 0.5 mg/kg/injection, vehicle: water) 208 % of control and 285 % of control; (dose: 1.0 mg/kg/injection, vehicle: water) 189 % of control and 285 % of control; (dose: 2.0 mg/kg/injection, vehicle: water) 212 % of control and 285 % of control. Also, the T/C (dose: 4.0 mg/kg/injection, vehicle: water) is 285 % of control.

Consider `NCCc1ccc(O)cc1`, for which the T/C is 96 % of control under setting [6], 96 % of control under setting [7], 96 % of control under setting [8] and 104 % of control under setting [9].

`NC(CSSCC(N)C(=O)O)C(=O)O` (configuration not stated): the T/C is, setting by setting: under setting [10], 101 % of control; under setting [11], 103 % of control; under setting [12], 117 % of control; (dose: 800.0 mg/kg/injection, vehicle: saline with Tween-80) 102 % of control.

For the compound `CCOC(=O)c1cn(C)c2c1C(O)=C(C(=O)OC)CC(=O)N2`, the T/C runs as follows: under setting [18], 92 % of control; under setting [19], 96 % of control; under setting [10], 96 % of control; under setting [11], 96 % of control; under setting [12], 92 % of control.

As to `C1OCN2CSCC12` (configuration not stated), the T/C is 106 % of control under setting [20]; 94 % of control and 99 % of control under setting [18]; 92 % of control and 99 % of control under setting [19]; 108 % of control and 109 % of control under setting [10]; 109 % of control and 90 % of control under setting [11].

Turning to `ClCC[N+]12CC[N+](CCCl)(CC1)C2`, the T/C (dose: 12.5 mg/kg/injection, vehicle: water) is 98 % of control; the T/C (dose: 25.0 mg/kg/injection, vehicle: water) was 114 % of control; the T/C (dose: 50.0 mg/kg/injection, vehicle: water) is 104 % of control; the T/C (dose: 100.0 mg/kg/injection, vehicle: water) was 108 % of control.

Consider `COc1ccc(S(=O)(=O)N=N/C=C2\C=CC=CN2O)cc1OC`, for which the T/C is 119 % of control under setting [2]; 111 % of control (dose: 3.12 mg/kg/injection, vehicle: saline with Tween-80); 123 % of control under setting [3]; 102 % of control (dose: 6.25 mg/kg/injection, vehicle: saline with Tween-80); 107 % of control under setting [20]; 123 % of control under setting [18]. For the same compound, the T/C under setting [19] was 122 % of control.

Regarding `N=c1nc2n(cc1F)[C@@H]1O[C@H](CO)[C@@H](O)[C@@H]1O2`, the T/C reads like this: under setting [13], 111 % of control; under setting [5], 110 % of control; under setting [14], 121 % of control; under setting [6], 112 % of control; under setting [15], 110 % of control; under setting [7], 117 % of control and 97 % of control. In addition, the T/C is 104 % of control under setting [16]; 124 % of control and 105 % of control under setting [8]; 117 % of control under setting [17]; 121 % of control under setting [9].
